Source: the NIST ThermoML archive (doi:10.1016/j.jct.2019.02.011)

Assay: xn = mol fraction of the nth substance listed
Conditions: Liquid, Vibrating tube method

COC(=O)OC [dimethyl carbonate] + CCO
mass density [kg/m3]
Conditions | 100 kPa | 5000 kPa | 10000 kPa | 15000 kPa | 20000 kPa | 25000 kPa | 30000 kPa | 35000 kPa | 40000 kPa
293.15 K, x1 = 0.0252 | – | – | – | 811.64 | 815.31 | 819.03 | 822.43 | 825.77 | 828.8
293.15 K, x1 = 0.0506 | – | – | – | 821.2 | 824.93 | 828.7 | 832.16 | 835.5 | 838.59
293.15 K, x1 = 0.0757 | – | – | – | 830.53 | 834.27 | 838.04 | 841.5 | 844.9 | 848.05
293.15 K, x1 = 0.1003 | – | – | – | 839.43 | 843.17 | 846.95 | 850.46 | 853.86 | 857.02
293.15 K, x1 = 0.1508 | – | – | – | 857.39 | 861.19 | 864.97 | 868.5 | 871.96 | 875.19
293.15 K, x1 = 0.2 | – | – | – | 874.34 | 878.21 | 882.03 | 885.62 | 889.09 | 892.34
293.15 K, x1 = 0.2547 | – | – | 888.37 | 892.5 | 896.38 | 900.3 | 903.95 | 907.43 | 910.71
293.15 K, x1 = 0.3002 | – | – | 903.11 | 907.24 | 911.13 | 915.06 | 918.71 | 922.25 | 925.54
293.15 K, x1 = 0.3498 | – | – | 918.65 | 922.78 | 926.73 | 930.66 | 934.33 | 937.83 | 941.14
293.15 K, x1 = 0.4 | – | – | 933.81 | 937.95 | 941.91 | 945.85 | 949.52 | 953.08 | 956.41
293.15 K, x1 = 0.449 | – | – | 948.11 | 952.25 | 956.22 | 960.16 | 963.84 | 967.41 | 970.75
293.15 K, x1 = 0.4996 | – | – | 962.37 | 966.52 | 970.5 | 974.44 | 978.13 | 981.71 | 985.12
293.15 K, x1 = 0.5507 | – | – | 976.3 | 980.45 | 984.45 | 988.38 | 992.09 | 995.67 | 999.1
293.15 K, x1 = 0.6005 | – | – | 989.41 | 993.51 | 997.52 | 1001.46 | 1005.17 | 1008.76 | 1012.2
293.15 K, x1 = 0.6455 | – | – | 1000.79 | 1004.95 | 1008.96 | 1012.9 | 1016.62 | 1020.22 | 1023.68
293.15 K, x1 = 0.6931 | – | – | 1012.44 | 1016.6 | 1020.62 | 1024.56 | 1028.29 | 1031.89 | 1035.36
293.15 K, x1 = 0.7502 | – | – | 1025.93 | 1030.04 | 1034.07 | 1038.07 | 1041.8 | 1045.41 | 1048.9
293.15 K, x1 = 0.8009 | – | – | 1037.44 | 1041.56 | 1045.6 | 1049.6 | 1053.34 | 1056.96 | 1060.46
293.15 K, x1 = 0.8505 | – | – | 1048.32 | 1052.45 | 1056.49 | 1060.49 | 1064.24 | 1067.85 | 1071.38
293.15 K, x1 = 0.9008 | – | – | 1058.94 | 1063.09 | 1067.15 | 1071.17 | 1074.9 | 1078.5 | 1082.06
293.15 K, x1 = 0.9255 | – | – | 1064.04 | 1068.18 | 1072.28 | 1076.27 | 1080.01 | 1083.62 | 1087.15
293.15 K, x1 = 0.9477 | – | – | 1068.54 | 1072.7 | 1076.81 | 1080.81 | 1084.52 | 1088.13 | 1091.64
293.15 K, x1 = 0.9735 | – | – | 1073.72 | 1077.83 | 1081.94 | 1085.94 | 1089.66 | 1093.25 | 1096.74
293.15 K, x1 = 1 | – | – | 1078.93 | 1083.01 | 1087.08 | 1091.03 | 1094.75 | 1098.34 | 1101.84
298.15 K, x1 = 0.0252 | 795.08 | 799.26 | 803.35 | 807.39 | 811.05 | – | – | – | –
298.15 K, x1 = 0.0506 | 804.43 | 808.65 | 812.8 | 816.89 | 820.61 | – | – | – | –
298.15 K, x1 = 0.0757 | 813.64 | 817.91 | 822.06 | 826.15 | 829.93 | – | – | – | –
298.15 K, x1 = 0.1003 | 822.42 | 826.69 | 830.89 | 834.98 | 838.77 | – | – | – | –
298.15 K, x1 = 0.1508 | 840.14 | 844.46 | 848.67 | 852.81 | 856.66 | – | – | – | –
298.15 K, x1 = 0.2 | 856.81 | 861.18 | 865.45 | 869.59 | 873.46 | – | – | – | –
298.15 K, x1 = 0.2547 | 874.78 | 879.19 | 883.47 | 887.66 | 891.55 | – | – | – | –
298.15 K, x1 = 0.3002 | 889.24 | 893.65 | 897.98 | 902.17 | 906.13 | – | – | – | –
298.15 K, x1 = 0.3498 | 904.6 | 909.01 | 913.35 | 917.59 | 921.56 | – | – | – | –
298.15 K, x1 = 0.4 | 919.63 | 924.09 | 928.49 | 932.73 | 936.77 | – | – | – | –
298.15 K, x1 = 0.449 | 933.8 | 938.26 | 942.66 | 946.91 | 950.95 | – | – | – | –
298.15 K, x1 = 0.4996 | 947.93 | 952.44 | 956.85 | 961.1 | 965.16 | – | – | – | –
298.15 K, x1 = 0.5507 | 961.74 | 966.24 | 970.71 | 974.95 | – | – | – | – | –
298.15 K, x1 = 0.6005 | 974.67 | 979.17 | 983.64 | 987.89 | – | – | – | – | –
298.15 K, x1 = 0.6455 | 985.93 | 990.48 | 994.96 | 999.21 | – | – | – | – | –
298.15 K, x1 = 0.6931 | 997.5 | 1002.05 | 1006.53 | 1010.78 | – | – | – | – | –
298.15 K, x1 = 0.7502 | 1010.81 | 1015.36 | 1019.85 | 1024.1 | – | – | – | – | –
298.15 K, x1 = 0.8009 | 1022.25 | 1026.8 | 1031.29 | 1035.55 | – | – | – | – | –
298.15 K, x1 = 0.8505 | 1033.01 | 1037.56 | 1042.06 | 1046.31 | – | – | – | – | –
298.15 K, x1 = 0.9008 | 1043.58 | 1048.13 | 1052.63 | 1056.89 | – | – | – | – | –
298.15 K, x1 = 0.9255 | 1048.64 | 1053.19 | 1057.7 | 1061.95 | – | – | – | – | –
298.15 K, x1 = 0.9477 | 1053.11 | 1057.69 | 1062.19 | 1066.43 | – | – | – | – | –
298.15 K, x1 = 0.9735 | 1058.28 | 1062.83 | 1067.34 | 1071.56 | – | – | – | – | –
298.15 K, x1 = 1 | 1063.45 | 1068 | 1072.51 | 1076.72 | – | – | – | – | –
